Experimental data as given in patent US12596125B2, “Nano-rheological biomarkers for early and improved follow-up of pathologies associated to RBC deformability alteration” (ALCEDIAG, priority 2019, dated 2026).
Several values for one entry are separate records, joined by “and”; a condition that tells them apart may be missing. Identical values can stand only once. Each block holds one compound with its values, some of them ahead of it.

Experiments:
[1] = Sensitivity of rotor fluorescence to pH and ionic strength (NaCl); type: physicochemical; conditions: 37 °C, rotor 15 μM; for dependency of fluorescence intensity on NaCl concentration (ionic strength): NaCl 0.1-200 mM, water-glycerol 50%-50%; for dependency of fluorescence intensity on pH: pH 3-8, citric acid/phosphate, water-glycerol 70%-30%
Text: (§1) The fluorescent response spectra of the rotors has been measured by varying four parameters • Viscosity, with water-glycerol solutions with increasing relative concentration (see FIGS. 2A-2D); • Electrostatic and ionic perturbations, with increasing NaCl concentration in a water-glycerol solution (50%-50%) (see FIG. 3A)); • pH, with buffered solutions Citric acid/Phosphate pH; 3<pH<8 in a water-glycerol solution (70%-30%) (see FIG. 3B); and • Molecular density and highly interacting (including hydrophobic) environment using a gradient BSA (bovine serum albumin) (see FIG. 4A-4D).
(§2) The pH was assayed from 3 (corresponding to the most acidic zones) to 8. For viscosity, we used literature data agreeing on apparent values in various cellular media, ranging from 1.5 mPa·s in the cytoplasm up to 140 mPa·s in the vesicles. In our studies, the MR concentration was set to 15 μM under the expected toxicity onset [Haidekker (2010a)]. One key remark, as any fluorescent molecule, signal intensity is also a function of its concentration. It is therefore very important to control the concentration of molecular rotor or, if when impossible, to be able to measure the concentration regardless of the viscosity.

[2] = Excitation-emission matrix (spectral response) of molecular rotors; type: physicochemical
Experimental: Excitation wavelength in abscissa, emission in ordinates, in nanometer (nm)). The rotors are diluted in a water/glycerol solution at a concentration 15 μM.
FIGS. 9a-9f: Excitation emission matrices of the molecular rotor DASPI, at temperature 25° C., at concentration 3.3 μM in (a) DMSO (η=2 mPa·s), (b) Ethylene glycol (η=13.5 mPa·s), (c) Glycerol (η=945 mPa·s) and (d,e) Hemoglobin in PBS (1000× dilution, different scale, η=1 mPa·s). The Fluorescence EEM of hemoglobin alone (f) was also measured to give evidence that there is no contribution of hemoglobin in the DASPI range of interest. […] In hemoglobin solutions however (d,e), the emission peak value is lower than in DMSO for similar viscosities because of the high absorbance of the solution.
The excitation-emission matrix of these 4 rotors, diluted in a glycerol/water solution (purely viscous fluid), have been measured using a SYNERGY H1 (Hybrid Multi-Mode reader, BioTek).
In a first step, fluorescence Excitation Emisson Matrices (EMMs) of DASPI were measured in selected solvents, at controlled temperature 25·C: DMSO, Ethylene Glycol, Glycerol and hemoglobin/PBS solutions (dilution 1000×). […] The Fluorescence EEM of hemoglobin alone (dilution 1000× in PBS) was also measured in the DASPI range of interest to give evidence that there is no contribution of hemoglobin in this range (f).

[3] = Fluorescence intensity as a function of viscosity (Förster-Hoffmann equation); type: physicochemical
Experimental: FIGS. 10a-10b: Emission peak intensity (fluorescence microscopy, excitation at 488 nm, emission 595±30 nm) of the molecular rotor DASPI at concentration 0.01 mM, 0.1 mM, 1 mM in (left) ethylene glycol/glycerol solutions and (right) aqueous glycerol solutions with increasing viscosity. The solutions temperature was fixed at T=X ° C. The fluorescence intensity increases with the solution viscosity according to the Förster-Hoffmann equation log φ=C+b log η, with solvent-dependent parameters b and C; Ethylene glycol/glycerol solutions: C=94,641,2206± and b=0.69±0.01 and aqueous glycerol solutions: C=74,344,1590± and b=0.70±0.01.
as §1, §2
The second step was to assess the sensitivity of DASPI to the local viscosity of the surrounding medium. More generally, fluorescent MRs photophysical sensitivity depends on their interaction with the environment, characterized by viscosity, polarity and solubility. […] Here we have investigated the DASPI emission intensity (fluorescence microscopy, excitation at 488 nm, emission at 595±30 nm) in ethylene glycol/glycerol solutions (viscosity between 10-200 mPa·s) and aqueous solutions of glycerol (viscosity between 2-200 mPa·s). In each solution, the relative concentration of both solvents was varied to adjust the viscosity of the resulting mixture, at temperature T=X° C. The viscosity was measured in situ by microrheology measurements, just before fluorescence intensity measurements. […]

[4] = system: red blood cells (RBCs); assay: Fluorescence of rotor in healthy and glutaraldehyde-stiffened red blood cells (confocal / epi-fluorescence microscopy); type: cell-based; conditions: glutaraldehyde 0-2% per volume of cells; 0.4 mM rotor, 1 hour; excitation 488 nm, detection 565-625 nm
Experimental: FIG. 6: Left: Suspension of healthy red blood cells and red blood cells stiffened with glutaraldehyde, in a PBS solution, using confocal microscopy (×40 objective, excitation at 488 nm, detection between 542-626 nm). The molecular rotor tDASMP was introduced into the solution according the protocol described in Example 2.
As a next step towards the rheological characterization of RBCs with MRs, we then imaged a suspension of healthy and artificially rigidified RBCs (by incubation during 10 min in a 1% (v/v) Glutaraldehyde solution in PBS) treated with tDASMP. […] Confocal microscopy allows to measure fluorescence profiles across RBCs.
In a second step, a quantification of the fluorescence response as a function of the degree of rigidification of RBCs can be performed. […]
For visualization, samples were placed between a glass slide and coverslip separated by a 250 μm spacer and initially incubated in a PBS solution supplemented with 1% BSA (Bovine Serum Albumin, Sigma-Aldrich) to prevent RBC adhesion. Observation was made with a Leica microscope in epi-fluorescence mode with excitation at 488 nm and detection at 565-625 nm. Images recorded with a sCMOS fast camera (OrcaFlash4.0 v2+, Hamamatsu Photonics France S.A.R.L., Massy, France) allowed to measure the mean fluorescence intensity of RBCs rescaled by the background fluorescence level.

[5] = target: T1, hemoglobin solutions (Homo sapiens, UniProt P68871+P69905); assay: Emission intensity of rotor in hemoglobin solutions of increasing viscosity; type: physicochemical; conditions: viscosity 3.4-9.2 mPa·s, temperature 17-34 °C
T1 construct: The RBC pellet was exposed to 3 freeze-thaw cycles (−80° C. to 37° C.) to lyse RBC membranes; from tissue; host or cells: red blood cells from blood samples (lysate, membranes extracted with CCl4)
Experimental: Red blood cells were washed three times in PBS buffer in order to prepare hemoglobin solutions from blood samples. After a final centrifugation at 1200 g for 10 min, all the supernatant was removed. The RBC pellet was exposed to 3 freeze-thaw cycles (−80° C. to 37° C.) to lyse RBC membranes. Membrane residues were then extracted by addition of CCl4 to the lysate (⅓ of the volume), strong agitation and ultra-centrifugation at 10000 g for 15 min. The hemoglobin concentration in the final solution was measured by colorimetry (MAK 115 Hemoglobin Assay Kit from Sigma-Aldrich).
We studied the emission intensity of tDASMP in hemoglobin solutions of increasing viscosity. The temperature of the sample was varied between 17° C. and 34° C.

[6] = system: red blood cells (RBCs); assay: Penetration and localization of molecular rotor in red blood cells by confocal microscopy; type: cell-based; conditions: for penetration of the rotor into RBCs: healthy and rigidified RBCs
Experimental: FIG. 12: Bright field image and confocal z-stacks obtained using confocal microscopy (X40 objective, excitation at 488 nm, detection between 542-626 nm) for three healthy RBCs with different orientations in a 1 mM DASPI solution. The z position of the slices is indicated. […] The mean intensity was measured in the depicted color boxes and each data point corresponds to a confocal slice (0.5 μm distance). As a next step towards the rheological characterization of RBCs with MRs, we then imaged a suspension of healthy and artificially rigidified RBCs (by incubation during 10 min in a 1% (v/v) Glutaraldehyde solution in PBS) treated with […]. Healthy and rigidified RBC suspensions were mixed and the resulting suspension was observed using confocal microscopy with an excitation at 488 nm and detection between 546 nm and 626 nm. An image corresponding to the mid-cross section of the RBC after cells have sedimented on the bottom window of the observation chamber is shown in FIG. 6. […] Confocal microscopy allows to measure fluorescence profiles across RBCs. The localization of the DASPI molecular rotor in healthy red blood cells was studied by confocal microscopy. Confocal images were acquired during the slow sedimentation of the RBCs with different orientations in the observation microchannel. […] Beyond the membrane, in the cytosol, the signal from DASPI was homogeneous in the observation plane, regardless of the z-position and orientation of the cell. Confocal microscopy allows us to unambiguously separate the fluorescence response from the membrane and cytosol. In fact, as soon as the upper and lower membranes are out of the depth of field ( 600 nm), they no longer contribute to the field of vision. […] By scanning the different parts of the red blood cells, we measure that the DASPI fluorescence signal is present throughout the whole red blood cell, over a distance which corresponds approximately (given the depth of field) to the typical known sizes of the red blood cell: diameter 8 μm (b), thickness on the edge 3 μm (a), thickness in the biconcave zone 1 μm (a).

T1 sequence (P69905 2-142 limits assumed): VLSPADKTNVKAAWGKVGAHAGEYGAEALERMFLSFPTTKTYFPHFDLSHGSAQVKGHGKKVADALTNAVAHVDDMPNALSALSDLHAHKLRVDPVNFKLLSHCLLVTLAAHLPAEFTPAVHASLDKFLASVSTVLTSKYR
T1 sequence (P68871 2-147 limits assumed): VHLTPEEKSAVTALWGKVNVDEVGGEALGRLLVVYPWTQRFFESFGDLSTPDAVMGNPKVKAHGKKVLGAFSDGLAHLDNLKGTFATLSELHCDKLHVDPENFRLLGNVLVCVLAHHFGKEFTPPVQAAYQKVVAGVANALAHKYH

- dependency of fluorescence intensity on NaCl concentration (ionic strength) [1]: no significant dependency
- dependency of fluorescence intensity on pH [1]: no significant dependency
Compound: N#CC(C#N)=Cc1cc2c3c(c1)CCCN3CCC2 [DCVJ, Dicyanovinyl-Julolidine]

- excitation/emission peaks ([2]; water/glycerol solution, rotor 15 μM): around 380/440 and 430/490
- excitation/emission peak following the Förster-Hoffmann equation ([3]; water-glycerol solutions, viscosity 1-200 mPa·s): 430/490
- dependency of fluorescence intensity on NaCl concentration (ionic strength) [1]: no significant dependency
- dependency of fluorescence intensity on pH [1]: no significant dependency
Compound: Cc1ccc2c(c1)sc(-c1ccc(N(C)C)cc1)[n+]2C.[Cl-] [Tht, Thioflavine T]

- fluorescence excitation peak ([2]; DMSO, ethylene glycol, glycerol, hemoglobin/PBS, 25 °C, 3.3 μM): around 480 nm
- emission ([2]; rotor of Examples 1-2): 580-620 nm
- excitation peak ([2]; rotor of Examples 1-2): around 490 nm
- Förster-Hoffmann exponent b ([3]; aqueous glycerol solutions, excitation 488 nm, emission 595±30 nm): 0.70±0.01
- Förster-Hoffmann exponent b ([3]; both ethylene glycol/glycerol and glycerol/water solutions): around 0.7
- Förster-Hoffmann exponent b ([3]; ethylene glycol/glycerol solutions, excitation 488 nm, emission 595±30 nm): 0.69±0.01
- dependency of fluorescence intensity on NaCl concentration (ionic strength) [1]: no significant dependency
- dependency of fluorescence intensity on pH [1]: no significant dependency
Compound: CN(C)c1ccc(C=Cc2cc[n+](C)cc2)cc1.[I-] [tDASMP, trans-4-[4-(Dimethylamino)styryl]-1-methylpyridinium iodide]
- mean fluorescence intensity of RBCs versus RBC rigidity [4]: increasing function of RBC rigidity
- interference of excitation-emission spectrum with hemoglobin fluorescence ([2]; hemoglobin in PBS, 1000× dilution): does not interfere with the intrinsic hemoglobin fluorescent spectrum
- fluorescence emission intensity versus viscosity of hemoglobin solutions [5]: increase in fluorescence emission intensity
- distribution of the rotor inside RBCs [6]: uniformly distributed throughout the volume of RBCs
- penetration of the rotor into RBCs [6]: able to cross the membrane and penetrate within the RBCs
- penetration of the rotor into RBCs ([6]; listed as DASPI): spontaneously penetrates into red blood cells

- dependency of fluorescence intensity on NaCl concentration (ionic strength) [1]: no significant dependency
- dependency of fluorescence intensity on pH [1]: no significant dependency
Compound: N#C/C(=C\c1cc2c3c(c1)CCCN3CCC2)C(=O)O [CCVJ, Carboxycyanovinyl-Julolidine]
